Key:
Endothelial lipase (EL) = Endothelial lipase (EL) (Homo sapiens (Human), UniProt Q9Y5X9); assay: EL assay: endothelial lipase activity with fluorescent substrate A10070 in DMPG vesicles; type: biochemical
Procedure, shortened: (§1)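 Substrate A10070 sits in sonicated DMPG vesicles at 0.11 mole fraction. Lipase and compound preincubated 30 min, 37° C, in HEPES pH 8.0 buffer with CaCl2.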

hepatic lipase (HL) = hepatic lipase (HL) (Homo sapiens (Human), UniProt P11150); assay: HL assay: hepatic lipase activity with fluorescent substrate A10070 in DMPG vesicles; type: biochemical
Chain of hepatic lipase (HL) (P11150 23-499, species assumed): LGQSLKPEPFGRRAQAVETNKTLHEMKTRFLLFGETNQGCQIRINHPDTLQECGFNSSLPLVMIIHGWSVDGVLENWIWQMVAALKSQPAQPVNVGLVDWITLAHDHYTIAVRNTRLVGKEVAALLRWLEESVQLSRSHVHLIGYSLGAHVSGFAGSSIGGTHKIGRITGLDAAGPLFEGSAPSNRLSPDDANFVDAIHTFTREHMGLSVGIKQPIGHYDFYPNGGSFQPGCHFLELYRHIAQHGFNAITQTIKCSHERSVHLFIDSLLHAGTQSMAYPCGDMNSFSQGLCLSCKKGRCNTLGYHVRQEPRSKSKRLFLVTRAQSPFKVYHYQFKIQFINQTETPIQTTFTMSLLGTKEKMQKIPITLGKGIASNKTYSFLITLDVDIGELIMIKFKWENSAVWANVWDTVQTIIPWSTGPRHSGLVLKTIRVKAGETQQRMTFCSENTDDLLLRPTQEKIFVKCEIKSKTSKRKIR
Procedure, shortened: as §1

Chain of Endothelial lipase (EL) (Q9Y5X9 21-500): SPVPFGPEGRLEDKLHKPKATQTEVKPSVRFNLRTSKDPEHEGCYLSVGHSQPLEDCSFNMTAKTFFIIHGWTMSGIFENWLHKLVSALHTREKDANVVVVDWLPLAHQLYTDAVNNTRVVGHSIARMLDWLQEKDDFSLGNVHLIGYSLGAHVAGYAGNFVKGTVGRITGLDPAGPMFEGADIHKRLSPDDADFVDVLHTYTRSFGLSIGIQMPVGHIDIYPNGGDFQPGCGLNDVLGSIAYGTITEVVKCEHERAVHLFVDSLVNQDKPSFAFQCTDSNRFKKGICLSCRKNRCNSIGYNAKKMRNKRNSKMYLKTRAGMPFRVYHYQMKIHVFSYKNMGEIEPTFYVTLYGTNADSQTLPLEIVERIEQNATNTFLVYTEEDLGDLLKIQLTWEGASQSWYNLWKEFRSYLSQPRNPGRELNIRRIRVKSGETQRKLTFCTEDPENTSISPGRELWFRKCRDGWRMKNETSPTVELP

Row | SMILES | IC50 (Endothelial lipase (EL)) | IC50 (hepatic lipase (HL))
1 | CC(C)S(=O)(=O)C(C(=O)NCCS(N)(=O)=O)c1nc2ccc(-c3cccc(C(=O)N(C)C)c3)cc2s1 (stereo not shown) [Example B272, N,N-dimethyl-3-{2-[(propane-2-sulfonyl)[(2-sul-famoylethyl)carbamoyl]meth-yl]-1,3-benzothiazol-6-yl}benzamide] | 0.0353 µM | 0.612 µM
2 | Cc1cc2nc(C(C(=O)NCCS(N)(=O)=O)S(=O)(=O)Cc3ccccc3)sc2cc1-c1ccc(C(=O)OC(C)(C)C)cc1 (stereo not shown) [Example B273, tert-butyl 4-(5-methyl-2-{phenylmethanesulfonyl[(2-sulfamoylethyl)car-bamoyl]methyl}-1,3-benzothiazol-6-yl)benzoate] | 0.0014 µM | 0.003 µM
3 | Cc1cc2nc(C(C(=O)NCCS(N)(=O)=O)S(C)(=O)=O)sc2cc1-c1ccc(C(=O)OC(C)(C)C)cc1 (stereo not shown) [Example B274, tert-butyl 4-(2-{methanesulfonyl[(2-sul-famoylethyl)carbamoyl]meth-yl}-5-methyl-1,3-benzothiazol-6-yl)benzoate] | 0.0017 µM | 0.0051 µM
4 | CS(=O)(=O)C(C(=O)NCc1ccccc1S(N)(=O)=O)c1nc2ccc(-c3ccc(N4CCCCC4)cc3)cc2s1 (stereo not shown) [Example B275, 2-methanesulfonyl-2-{6-[4-(piperidin-1-yl)phenyl]-1,3-benzothiazol-2-yl}-N-[(2-sulfamoylphenyl)meth-yl]acetamide] | 0.173 µM | 0.218 µM
5 | CC(C)(C)OC(=O)c1ccc(-c2ccc3nc(C(C(=O)NCCS(N)(=O)=O)S(=O)(=O)Cc4ccccc4)sc3c2)cc1 (stereo not shown) [Example B276, tert-butyl 4-(2-{phenylmethanesulfonyl[(2-sulfamoylethyl)car-bamoyl]methyl)-1,3-benzothiazol-6-yl)benzoate] | 0.0011 µM | 0.0008 µM
6 | NS(=O)(=O)c1cccc(CNC(=O)C(c2nc3ccc(-c4ccc(C(=O)N5CCCC5)cc4)cc3s2)S(=O)(=O)Cc2ccccc2)c1 (stereo not shown) [Example B277, 2-phenylmethanesulfonyl-2-{6-[4-(pyrrolidine-1-carbonyl)phenyl]-1,3-benzothiazol-2-yl}-N-[(3-sulfamoylphenyl)methyl]a-cetamide] | 0.191 µM | 0.0849 µM
7 | NS(=O)(=O)c1cccc(CNC(=O)C(c2nc3ccc(-c4ccncc4Cl)cc3s2)S(=O)(=O)Cc2ccccc2)c1 (stereo not shown) [Example B278, 2-[6-(3-chloropyridin-4-yl)-1,3-benzothiazol-2-yl]-2-phenylmethanesulfonyl-N-[(3-sulfamoylphen-yl)methyl]acetamide] | 0.158 µM | 0.355 µM
8 | Cc1nnc(CNC(=O)C(c2nc3ccc(-c4ccc(C(=O)OC(C)(C)C)cc4)cc3s2)S(C)(=O)=O)s1 (stereo not shown) [Example B279, tert-butyl 4-{2-[methanesulfonyl({[(5-methyl-1,3,4-thiadiazol-2-yl)methyl]carbamoyl})meth-yl]-1,3-benzothiazol-6-yl}benzoate] | 0.0156 µM | 0.0028 µM
9 | CC(C)S(=O)(=O)C(C(=O)NCCS(N)(=O)=O)c1nc2c(F)cc(-c3cccc(C(=O)OC(C)(C)C)c3)cc2s1 (stereo not shown) [Example B280, tert-butyl 3-{4-fluoro-2-[(propane-2-sulfonyl)[(2-sul-famoylethyl)carbamoyl]meth-yl]-1,3-benzothiazol-6-yl}benzoate] | 0.0048 µM | 0.0029 µM
10 | COCCS(=O)(=O)C(C(=O)NCCS(N)(=O)=O)c1nc2ccc(-c3ccc(F)nc3)cc2s1 (stereo not shown) [Example B281, 2-[6-(6-fluoropyridin-3-yl)-1,3-benzothiazol-2-yl]-2-(2-methoxyethane-sulfonyl)-N-(2-sulfamoylethyl)acetamide] | 0.0179 µM | 0.11 µM
11 | COCCNC(=O)c1ccc(-c2ccc3nc(C(C(=O)NCCS(N)(=O)=O)S(=O)(=O)Cc4ccc(OC(F)(F)F)cc4)sc3c2)cc1 (stereo not shown) [Example B282, N-(2-methoxyethyl)-4-(2-{[(2-sulfamoylethyl)car-bamoyl][4-(trifluoromethoxy)phen-yl]methanesulfonylmethyl}-1,3-benzothiazol-6-yl)ben-zamide] | 0.0026 µM | 0.306 µM
12 | NS(=O)(=O)CCNC(=O)C(c1nc2ccc(-c3ccc(C(=O)N4CCOCC4)cc3)cc2s1)S(=O)(=O)CC1CC1 (stereo not shown) [Example B283, 2-cyclopropylmethane-sulfonyl-2-{6-[4-(morpholine-4-carbonyl)phenyl]-1,3-benzothiazol-2-yl}-N-(2-sulfamoylethyl)acetamide] | 0.0538 µM | 0.365 µM

More lines, now with the values ahead:

Row | IC50 (Endothelial lipase (EL)) | IC50 (hepatic lipase (HL)) | SMILES
13 | 0.0068 µM | 0.0026 µM | NS(=O)(=O)CCNC(=O)C(c1nc2ccc(-c3ccccc3)cc2s1)S(=O)(=O)CCC(F)(F)F (stereo not shown) [Example B284, 2-(6-phenyl-1,3-benzothiazol-2-yl)-N-(2-sulfamoylethyl)-2-(3,3,3-trifluoropropanesulfonyl)a-cetamide]
14 | 0.0054 µM | 0.126 µM | COCc1ccc(-c2ccc3nc(C(C(=O)NCCS(N)(=O)=O)S(=O)(=O)Cc4ccc(OC(F)(F)F)cc4)sc3c2)cc1 (stereo not shown) [Example B285, 2-{6-[4-(methoxymethyl)phenyl]-1,3-benzothiazol-2-yl}-N-(2-sulfamoylethyl)-2-{[4-(trifluoromethoxy)phen-yl]methanesulfonyl}a-cetamide]
15 | 0.0039 µM | 0.0555 µM | COCc1ccc(-c2ccc3nc(C(C(=O)NCCS(N)(=O)=O)S(=O)(=O)CC4CC4)sc3c2)cc1 (stereo not shown) [Example B286, 2-cyclopropylmethane-sulfonyl-2-{6-[4-(methoxymethyl)phenyl]-1,3-benzothiazol-2-yl}-N-(2-sulfamoylethyl)a-cetamide]
16 | 0.007 µM | 0.09 µM | CC(=O)Nc1ccc(-c2ccc3nc(C(C(=O)NCCS(N)(=O)=O)S(=O)(=O)Cc4ccc(C(F)(F)F)cc4)sc3c2)cc1 (stereo not shown) [Example B287, 2-[6-(4-acetamidophenyl)-1,3-benzothiazol-2-yl]-N-(2-sulfamoylethyl)-2-{[4-(trifluoromethyl)phen-yl]methanesulfonyl}a-cetamide]
17 | 0.0008 µM | 0.123 µM | COCCN(C)C(=O)c1ccc(-c2ccc3nc(C(C(=O)NCCS(N)(=O)=O)S(=O)(=O)Cc4ccc(C(F)(F)F)cc4)sc3c2)cc1 (stereo not shown) [Example B288, N-(2-methoxyethyl)-N-methyl-4-(2-{[(2-sulfamoylethyl)carbamoyl][4-(trifluoromethyl)phen-yl]methanesulfonylmethyl}-1,3-benzothiazol-6-yl)ben-zamide]
18 | 0.0031 µM | 0.0217 µM | COCCN(C)C(=O)c1ccc(-c2ccc3nc(C(C(=O)NCCS(N)(=O)=O)S(=O)(=O)Cc4ccc(OC(F)(F)F)cc4)sc3c2)cc1 (stereo not shown) [Example B289, N-(2-methoxyethyl)-N-methyl-4-(2-{[(2-sulfamoyl-ethyl)carbamoyl][4-(trifluoromethoxy)phen-yl]methanesulfonyl-methyl}-1,3-benzothiazol-6-yl)benzamide]
19 | 0.0121 µM | 0.115 µM | COCCN(C)C(=O)c1ccc(-c2ccc3nc(C(C(=O)NCCS(N)(=O)=O)S(=O)(=O)CCC(F)(F)F)sc3c2)cc1 (stereo not shown) [Example B290, N-(2-methoxyethyl)-N-methyl-4-(2-{[(2-sulfa-moylethyl)carbamoyl](3,3,3-trifluoropropane-sulfonyl)methyl}-1,3-benzothiazol-6-yl)ben-zamide]
20 | 0.0007 µM | 0.0352 µM | COCCN(C)C(=O)c1ccc(-c2ccc3nc(C(C(=O)NCCS(N)(=O)=O)S(=O)(=O)CC4CC4)sc3c2)cc1 (stereo not shown) [Example B291, 4-(2-{cyclopropylmethane-sulfonyl[(2-sulfamoyl-ethyl)carbamoyl]methyl}-1,3-benzothiazol-6-yl)-N-(2-methoxyethyl)-N-methylbenzamide]
21 | 0.0202 µM | 0.112 µM | COCCNC(=O)c1ccc(-c2ccc3nc(C(C(=O)NCCS(N)(=O)=O)S(=O)(=O)Cc4ccc(Cl)c(Cl)c4)sc3c2)cc1 (stereo not shown) [Example B292, 4-{2-[(3,4-dichlorophen-yl)methanesulfonyl[(2-sulfa-moylethyl)carbamoyl]meth-yl]-1,3-benzothiazol-6-yl}-N-(2-methoxyethyl)ben-zamide]
22 | 0.146 µM | 0.329 µM | NS(=O)(=O)CCNC(=O)C(c1nc2ccc(-c3ccc(C(=O)N4CCOCC4)cc3)cc2s1)S(=O)(=O)Cc1ccc(C(F)(F)F)cc1 (stereo not shown) [Example B293, 2-{6-[4-(morpholine-4-carbonyl)phenyl]-1,3-benzothiazol-2-yl}-N-(2-sulfamoylethyl)-2-{[4-(trifluoromethyl)phen-yl]methanesulfonyl}a-cetamide]
23 | 0.0209 µM | 0.14 µM | COCCNC(=O)c1ccc(-c2ccc3nc(C(C(=O)NCCS(N)(=O)=O)S(=O)(=O)Cc4cc(Cl)cc(Cl)c4)sc3c2)cc1 (stereo not shown) [Example B295, 4-{2-[(3,5-dichlorophen-yl)methanesulfonyl[(2-sulfa-moylethyl)carbamoyl]meth-yl]-1,3-benzothiazol-6-yl}-N-(2-methoxyethyl)ben-zamide]
24 | 0.0029 µM | 0.267 µM | NS(=O)(=O)CCNC(=O)C(c1nc2ccc(-c3ccc(C(=O)N4CCOCC4)cc3)cc2s1)S(=O)(=O)Cc1ccc(F)cc1 (stereo not shown) [Example B296, 2-[(4-fluorophenyl)methanesulfonyl]-2-{6-[4-(morpholine-4-carbon-yl)phenyl]-1,3-benzothiazol-2-yl}-N-(2-sulfamoyleth-yl)acetamide]
25 | 0.0053 µM | 0.556 µM | NS(=O)(=O)CCNC(=O)C(c1nc2ccc(-c3ccc(C(=O)N4CCOCC4)cc3)cc2s1)S(=O)(=O)Cc1ccc(Cl)c(Cl)c1 (stereo not shown) [Example B297, 2-[(3,4-dichlorophen-yl)methanesulfonyl]-2-{6-[4-(morpholine-4-carbon-yl)phenyl]-1,3-benzothiazol-2-yl}-N-(2-sulfamoylethyl)a-cetamide]
26 | 0.0056 µM | 0.0742 µM | COC1CN(C(=O)c2ccc(-c3ccc4nc(C(C(=O)NCCS(N)(=O)=O)S(=O)(=O)Cc5ccc(C(F)(F)F)cc5)sc4c3)cc2)C1 (stereo not shown) [Example B299]
